Consider one compound from patent publication US20050014845A1, “Ambroxol for the treatment of epilepsy” (Boehringer Ingelheim International GmbH, priority 2003, published 2005).

Experiment [1] relates to centrally expressed neuronal sodium channels. Particulars: neuronal sodium channel subtypes, read-out: half-maximal inhibition of centrally expressed channels; cited from earlier work.
The target in the next experiment is T1, human GluR1/2 receptors (Homo sapiens, UniProt P42261+P42262).
T1 construct: expressed in transfected cells; host or cells: HEK 293
Description: Patch-Clamp of glutamate-induced membrane currents in HEK 293 cells expressing GluR1/2. The class given is cell-based. The conditions noted are these: 1 mM glutamate for 1 s, holding potential −80 mV. The procedure: HEK 293 cells which expressed functionally recombinant human GluR1/2 receptors were electrophysiologically investigated by the Patch-Clamp method ([…]). The administration of 1 mM glutamate (for 1 s at a holding potential of −80 mV) induced membrane currents which were inhibited by the joint administration of ambroxol.
Background: The patch-clamp technique gives a direct electrical read-out from membranes.

T1 sequence (P42261 19-906): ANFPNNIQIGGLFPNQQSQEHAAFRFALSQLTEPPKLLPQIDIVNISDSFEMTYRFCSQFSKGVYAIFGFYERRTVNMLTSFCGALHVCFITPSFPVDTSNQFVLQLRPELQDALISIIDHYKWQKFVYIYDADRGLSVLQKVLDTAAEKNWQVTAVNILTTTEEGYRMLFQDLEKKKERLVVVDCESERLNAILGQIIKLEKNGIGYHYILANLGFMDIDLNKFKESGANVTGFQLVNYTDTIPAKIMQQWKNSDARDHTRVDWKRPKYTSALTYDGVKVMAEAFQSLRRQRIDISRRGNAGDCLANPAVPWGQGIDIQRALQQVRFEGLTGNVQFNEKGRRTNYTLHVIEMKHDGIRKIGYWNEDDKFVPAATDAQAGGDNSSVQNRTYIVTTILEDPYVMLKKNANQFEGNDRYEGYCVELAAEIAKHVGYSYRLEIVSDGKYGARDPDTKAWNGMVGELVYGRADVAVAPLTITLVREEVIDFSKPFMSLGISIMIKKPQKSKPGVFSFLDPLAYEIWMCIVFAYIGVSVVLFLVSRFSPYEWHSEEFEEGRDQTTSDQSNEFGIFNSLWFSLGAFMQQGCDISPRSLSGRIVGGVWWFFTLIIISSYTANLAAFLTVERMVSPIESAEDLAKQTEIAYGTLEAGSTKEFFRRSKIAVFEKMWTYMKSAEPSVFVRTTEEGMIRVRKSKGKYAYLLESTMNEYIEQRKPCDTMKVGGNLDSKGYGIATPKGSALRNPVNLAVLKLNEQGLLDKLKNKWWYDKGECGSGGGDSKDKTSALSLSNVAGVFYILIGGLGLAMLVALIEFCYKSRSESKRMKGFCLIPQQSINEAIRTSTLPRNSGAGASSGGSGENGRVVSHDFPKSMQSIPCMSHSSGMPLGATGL
T1 sequence (P42262 22-883 limits assumed): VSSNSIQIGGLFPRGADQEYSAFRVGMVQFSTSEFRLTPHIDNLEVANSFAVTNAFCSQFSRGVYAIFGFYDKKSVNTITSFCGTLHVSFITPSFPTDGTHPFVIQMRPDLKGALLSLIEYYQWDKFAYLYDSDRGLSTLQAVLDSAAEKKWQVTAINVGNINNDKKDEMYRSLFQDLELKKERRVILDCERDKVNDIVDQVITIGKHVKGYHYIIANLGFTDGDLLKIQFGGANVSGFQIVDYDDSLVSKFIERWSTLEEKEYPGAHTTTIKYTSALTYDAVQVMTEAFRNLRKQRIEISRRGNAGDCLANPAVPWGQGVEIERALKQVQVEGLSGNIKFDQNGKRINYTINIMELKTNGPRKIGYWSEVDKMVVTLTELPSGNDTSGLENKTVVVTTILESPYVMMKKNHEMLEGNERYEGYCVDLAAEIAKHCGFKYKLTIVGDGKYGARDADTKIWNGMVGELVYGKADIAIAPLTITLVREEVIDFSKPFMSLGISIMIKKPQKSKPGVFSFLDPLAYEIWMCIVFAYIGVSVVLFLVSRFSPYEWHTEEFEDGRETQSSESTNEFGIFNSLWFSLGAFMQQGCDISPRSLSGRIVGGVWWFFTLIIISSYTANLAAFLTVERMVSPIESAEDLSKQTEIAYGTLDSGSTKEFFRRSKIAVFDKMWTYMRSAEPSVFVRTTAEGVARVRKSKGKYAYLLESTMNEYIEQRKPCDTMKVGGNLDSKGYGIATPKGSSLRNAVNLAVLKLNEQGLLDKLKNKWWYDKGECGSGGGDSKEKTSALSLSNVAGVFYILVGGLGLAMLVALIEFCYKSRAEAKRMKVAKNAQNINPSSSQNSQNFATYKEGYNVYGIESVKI

For the compound `Nc1c(Br)cc(Br)cc1CN[C@H]1CC[C@H](O)CC1` [ambroxol, trans-4-(2-amino-3,5-dibromobenzylamino)cyclohexanol], the IC50 in experiment [1] is 111 µM. In addition, the “concentrations inhibiting glutamate-induced membrane currents” value on human GluR1/2 receptors lay in the range of 30 to 1000 µM.
